Patent US20100249419A1, “UTILIZATION OF NOVEL COMPOUNDS WITH AMYLOID AFFINITY AND METHOD OF PRODUCING THE SAME” (NIHON MEDI-PHYSICS CO., LTD., priority 2007, published 2010)

Experiments:
[1] = [^125I]-labeled compounds, normal mice; cited from earlier work
[2] = International Publication No. WO03/106439; cited from earlier work
[3] = target: T1, aggregated Aβ (Aβ1-42) amyloid (Homo sapiens, UniProt P05067); test: In vitro binding test: inhibition of [^125I]3′-I-BTA-0 binding to amyloid; details: [^125I]3′-I-BTA-0 400 pmol/L, amyloid 1 μmol/L, 22° C., 3 hours
T1 construct: Aβ1-42 (manufactured by Wako) was dissolved in phosphate buffer (pH 7.4); purchased Wako
T1 sequence (P05067 672-713): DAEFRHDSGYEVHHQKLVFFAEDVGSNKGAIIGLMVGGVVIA
Protocol: Affinity of the present compounds with amyloid was examined by the following in vitro binding tests.
The measured radioactivity level was defined as the background radioactivity level, and used in the calculation of the inhibition ratio (hereinafter referred to as BG).
(9) Using the radioactivity levels measured above in (7) and (8), the inhibition ratio was determined by the following formula (1).
A graph in which values converted by probit transformation from the obtained inhibition ratios were plotted relative to logarithms of concentrations of compounds for evaluation was prepared to obtain an approximate straight line by the least square method.

[4] = Partition coefficient based on the octanol extraction method; assay type: physicochemical; details: octanol / 10 mmol/L phosphate buffer (pH 7.4); Table 6, Examples 20-21
Protocol: Partition coefficients based on the octanol extraction method (hereinafter referred to as log Poctanol) were measured, which are generally known as an indicator of permeability of compounds through the blood-brain barrier (hereinafter referred to as BBB).
A diethyl ether solution of Compound 1 prepared in Example 3 (Example 8), a diethyl ether solution of Compound 2 prepared in Example 6 (Example 9), and a diethyl ether solution of [^123I]-IMPY prepared in Reference Example 1 (Comparative Example 4) were each diluted with 10 mg/mL ascorbic acid-containing physiological saline solution, and adjusted to a radioactive concentration of 20-30 MBq/mL. To 2 mL of octanol, 10 μL each of the prepared sample solutions was added, 2 mL of 10 mmol/L phosphate buffer (pH 7.4) was added, followed by stirring for 30 seconds. After the mixture was centrifuged with a low-speed centrifuge (2000 rpm×60 min.), the octanol layer and the water layer were sampled each in an amount of 1 mL, and subjected to measurement of radioactivity count with an autowell gamma system (Type: ARC-301B, manufactured by Aloka). Using the obtained radioactivity count, log Poctanol was calculated in accordance with the equation (2).
A diethyl ether solution (Example 20) of Compound 4 prepared in Example 16, a diethyl ether solution (Example 21) of Compound 6 prepared in Example 19, and a diethyl ether solution (Comparative Example 7) of [^123I]-IMPY were each diluted with a 10 mg/mL ascorbic acid-containing physiological saline solution to adjust to a radioactive concentration of 20-30 MBq/mL. To 2 mL of octanol, 10 μL each of the prepared sample solution was added, and 2 mL of 10 mmol/L phosphate buffer (pH 7.4) was further added, followed by stirring for 30 seconds. After the mixture was centrifuged with a low-speed centrifuge (2000 rpm×60 min.), the octanol layer and the water layer were sampled each in an amount of 1 mL, and subjected to measurement of radioactivity count with an autowell gamma system (Type: ARC-301B, manufactured by Aloka). Using the obtained radioactivity count, logPoctanol was calculated in accordance with the equation (4).

[5] = Transferability into brain and clearance; assay type: in vivo, male Wistar rats; details: intravenous injection, rats, Table 7
Protocol: Using Compound 1 (Example 10) and Compound 2 (Example 11), a time course change of radioactive accumulation in brain of male Wistar rats (7-week old) was measured.
A diethyl ether solution of Compound 1 (Example 10) prepared in Example 3, a diethyl ether solution of Compound 2 (Example 11) prepared in Example 6 and a diethyl ether solution of [^123I]-IMPY (Comparative Example 5) prepared in Reference Example 1 were each diluted with 10 mg/mL ascorbic acid-containing physiological saline solution to adjust to a radioactive concentration of 8-12 MBq/mL. 0.05 mL each of the prepared sample solutions was injected under thiopental anesthesia into the tail vein of the rats. The rats were sacrificed by bleeding from abdominal artery, and brains were removed and subjected to measurement of mass of brains and further subjected to measurement of radioactivity (hereinafter referred to as A in this Example) with a single channel analyzer (detector type: SP-20 manufactured by OHYO KOKEN KOGYO Co., Ltd.) 2, 5, 30 and 60 minutes after the injection. Further, the radioactivity level of the rest of the whole body was measured in the same manner as above (hereinafter referred to as B in this Example). Using these measurement results, radioactive distribution per unit weight of brain (% ID/g) at the respective time points were calculated in accordance with the following formula (3).
Three animals were used for the experiment at the respective time points.
Using Compound 4 and Compound 6, a time course change of radioactive accumulation in brain of male Wistar rats (7-week old) was measured.
Compound 4 (Example 22), Compound 6 (Example 23) and a solution of [^123I]-IMPY (Comparative Example 8) prepared above in Reference Example 1 were each diluted with a 10 mg/mL ascorbic acid-containing physiological saline solution to prepare solutions (20-31 MBq/mL in radioactive concentration). 0.05 mL each of the prepared sample solutions was injected under thiopental anesthesia into the tail vein of the respective Wistar rat (7-week old). The rats were sacrificed by bleeding from abdominal artery, and brains were removed and subjected to measurement of mass of brains and further subjected to measurement of radioactivity (hereinafter referred to as A in this Example) with a single channel analyzer (detector type: SP-20 manufactured by OHYO KOKEN KOGYO Co., Ltd.) 2, 5, 30 and 60 minutes after the injection. Further, the radioactivity level of the rest of the whole body was measured in the same manner as above (hereinafter referred to as B in this Example). Using these measurement results, radioactive distribution per unit weight of brain (% ID/g) at the respective time points were calculated in accordance with the following formula (5).

[6] = target: T2, aggregated Aβ (Aβ1-42) injected into amygdaloid nucleus (Homo sapiens, UniProt P05067); test: Confirmation of imaging of amyloid in brain (ex vivo autoradiogram, Aβ1-42); design: species or system male Wistar rat; details: brain slice 60 minutes after tail vein injection
T2 construct: Aβ1-42 (manufactured by Wako) was dissolved in phosphate buffer (pH 7.4); purchased Wako
T2 sequence (P05067 672-713): as above
Protocol: The following experiment was carried out in order to examine whether amyloid in brain can be imaged by the compound of the present invention.
(1) Aβ1-42 (manufactured by Wako) was dissolved in phosphate buffer (pH 7.4) and shaken at 37° C. for 72 hours, to obtain a 1 mg/mL suspension of aggregated Aβ (hereinafter referred to as amyloid suspension in the Examples).
(2) 2.5 μL (corresponding to […]) of the amyloid suspension was injected into an amygdaloid nucleus on one side of a male Wistar rat (7-week old). As a control, 2.5 μL of a phosphate buffered physiological saline solution (pH 7.4) was injected into an amygdaloid nucleus on the other side of the rat. The rats were examined 1 day after the injection of the amyloid suspension and the phosphate buffered physiological saline solution (pH 7.4).
(3) Compound 1 was dissolved in a 10 mg/mL ascorbic acid-containing physiological saline solution to obtain a sample solution (22 MBq/mL in radioactivity concentration in the sample solution). This solution was injected under thiopental anesthesia into the rat through the tail vein (dosage: 0.5 mL, dosed radioactivity: 11-13 MBq equivalent).
(4) Brain was removed 60 minutes after the injection to prepare a brain slice of 10 μm in thickness with a microtome (type: CM3050S, manufactured by LEICA). The brain slice was exposed to an imaging plate for 20 hours, and then image analysis was carried out by use of a Bio-imaging Analyzer (type: BAS-2500; manufactured by FUJIFILM Corporation).
(5) After the completion of the image analysis using the Bio-imaging Analyzer, […]
Thus, it was confirmed that amyloid was deposited on the slice (FIG. 6b).
The same procedures as in Example 12 were performed except using a solution of Compound 2 in a 10 mg/mL ascorbic acid as a sample solution (the radioactive concentration of the sample solution was 25 MBq/mL).
(1) Aβ1-42 (manufactured by Wako) was dissolved in phosphate buffer (pH 7.4) and shaken at 37° C. for 72 hours, to obtain 1 mg/mL of a suspension of aggregated Aβ (hereinafter referred to as amyloid suspension in the Examples).
(3) A sample solution (30 MBq/mL in radioactivity concentration, Example 24) in which Compound 4 was dissolved in a 10 mg/mL ascorbic acid-containing physiological saline solution and a sample solution (30 MBq/mL in radioactivity concentration, Example 25) in which Compound 6 was dissolved in a 10 mg/mL ascorbic acid-containing physiological saline solution were prepared. This solution was injected under thiopental anesthesia into the rat through the tail vein (dosage: 0.5 mL, dosed radioactivity: 11-15 MBq equivalent).
Thus, it was confirmed that amyloid was deposited on the slice (FIG. 12 and FIG. 13).

## CN(C)c1ccc(-c2nc3ccc(I)cc3o2)cc1 [IBOX, 6-iodo-2-[4′-(N,N-dimethylamino)phenyl]benzoxazole]
[1]
  Clearance from normal tissues: insufficient in clearance from normal tissues

## CN(C)c1ccc(-c2cn3cc(I)ccc3n2)cc1 [IMPY, 6-iodo-2-[4′-(N,N-dimethylamino)phenyl]imidazo[1,2-a]pyridine]
[2]
  Reverse mutation test result: positive

## Nc1c(/N=N/c2ccc(-c3ccc(/N=N/c4cc(S(=O)(=O)O)c5ccccc5c4N)cc3)cc2)cc(S(=O)(=O)O)c2ccccc12 [Congo Red, reference compound]
[3]
  IC50: > 1000 nM

## CN(C)c1ccc(-c2nc3ccc(I)cc3s2)cc1 [TZDM, 6-iodo-2-[4′-(N,N-dimethylamino)phenyl]benzothiazole]
[1]
  Clearance from normal tissues: insufficient in clearance from normal tissues

## 2-[3′-(2″-hydroxyethoxy)phenyl]-6-[^123I]iodoimidazo[1,2-a]pyridine [Compound 4]
[4]
  logPoctanol value: 2.5
[5]; After 2 min.
  Radioactive distribution per unit weight of brain: 0.56 % ID/g
[5]; After 5 min.
  Radioactive distribution per unit weight of brain: 0.28 % ID/g
[5]; After 30 min.
  Radioactive distribution per unit weight of brain: 0.04 % ID/g
[5]; After 60 min.
  Radioactive distribution per unit weight of brain: 0.01 % ID/g
[6]
  Accumulation of radioactivity in amygdaloid nucleus on the amyloid-injected side: marked accumulation of radioactivity

## CC(=C(C#N)C#N)c1ccc2cc(N(C)CCF)ccc2c1 [FDDNP, 2-(1-{6-[(2-fluoroethyl)(methyl)amino]-2-naphthyl}ethylidene)malononitrile]
[2]
  Reverse mutation test result: positive

## CN(C)c1ccc(/C=C/c2ccc(I)cc2)cc1 [m-I-SB, (E)-4-dimethylamino-4′-iodostilbene]
[1]
  Clearance from normal tissues: insufficient in clearance from normal tissues
